Assay results published in the NIST ThermoML archive (doi:10.1016/j.jct.2018.08.004).

Experiment: xn = mol fraction of the nth substance listed
Settings: for surface tension liquid-gas: Maximal bubble pressure; for mass density: 100 kPa, Liquid, Vibrating tube method

CCCC[n+]1ccccc1.N#C[N-]C#N [1-butylpyridinium dicyanamide] + CC(C)O
Settings | mass density [kg/m3] | surface tension liquid-gas [mN/m]
288.15 K, x1 = 0.1008 | 857.57 | 23.3
288.15 K, x1 = 0.2007 | 906.69 | 25.7
288.15 K, x1 = 0.3005 | 944.56 | 26.9
288.15 K, x1 = 0.3999 | 974.5 | 28.5
288.15 K, x1 = 0.5005 | 999.39 | 30.5
288.15 K, x1 = 0.5998 | 1019.53 | 33.2
288.15 K, x1 = 0.7004 | 1036.66 | 35.9
288.15 K, x1 = 0.7972 | 1050.66 | 39.9
288.15 K, x1 = 0.9032 | 1063.81 | 45.5
288.15 K, x1 = 1 | 1074.97 | 56.3
293.15 K, x1 = 0.1008 | 853.79 | 22.8
293.15 K, x1 = 0.2007 | 903.11 | 25.2
293.15 K, x1 = 0.3005 | 941.13 | 26.7
293.15 K, x1 = 0.3999 | 971.16 | 28
293.15 K, x1 = 0.5005 | 996.12 | 30.2
293.15 K, x1 = 0.5998 | 1016.32 | 32.9
293.15 K, x1 = 0.7004 | 1033.49 | 35.7
293.15 K, x1 = 0.7972 | 1047.51 | 39.6
293.15 K, x1 = 0.9032 | 1060.69 | 45.2
293.15 K, x1 = 1 | 1071.9 | 56
298.15 K, x1 = 0.1008 | 849.98 | 22.3
298.15 K, x1 = 0.2007 | 899.51 | 24.8
298.15 K, x1 = 0.3005 | 937.68 | 26.2
298.15 K, x1 = 0.3999 | 967.82 | 27.8
298.15 K, x1 = 0.5005 | 992.86 | 29.9
298.15 K, x1 = 0.5998 | 1013.12 | 32.5
298.15 K, x1 = 0.7004 | 1030.32 | 35.3
298.15 K, x1 = 0.7972 | 1044.37 | 39.3
298.15 K, x1 = 0.9032 | 1057.57 | 44.9
298.15 K, x1 = 1 | 1068.83 | 55.7
303.15 K, x1 = 0.1008 | 846.14 | 22
303.15 K, x1 = 0.2007 | 895.9 | 24.5
303.15 K, x1 = 0.3005 | 934.24 | 25.9
303.15 K, x1 = 0.3999 | 964.49 | 27.5
303.15 K, x1 = 0.5005 | 989.61 | 29.6
303.15 K, x1 = 0.5998 | 1009.92 | 32.3
303.15 K, x1 = 0.7004 | 1027.16 | 35.1
303.15 K, x1 = 0.7972 | 1041.24 | 39.1
303.15 K, x1 = 0.9032 | 1054.46 | 44.7
303.15 K, x1 = 1 | 1065.76 | 55.5
308.15 K, x1 = 0.1008 | 842.28 | 21.6
308.15 K, x1 = 0.2007 | 892.3 | 24.1
308.15 K, x1 = 0.3005 | 930.8 | 25.5
308.15 K, x1 = 0.3999 | 961.18 | 27.1
308.15 K, x1 = 0.5005 | 986.37 | 29.3
308.15 K, x1 = 0.5998 | 1006.74 | 32
308.15 K, x1 = 0.7004 | 1024.02 | 34.8
308.15 K, x1 = 0.7972 | 1038.13 | 38.8
308.15 K, x1 = 0.9032 | 1051.37 | 44.4
308.15 K, x1 = 1 | 1062.7 | 55.2
313.15 K, x1 = 0.1008 | 838.39 | 21.3
313.15 K, x1 = 0.2007 | 888.69 | 23.8
313.15 K, x1 = 0.3005 | 927.36 | 25.2
313.15 K, x1 = 0.3999 | 957.86 | 26.8
313.15 K, x1 = 0.5005 | 983.14 | 29
313.15 K, x1 = 0.5998 | 1003.56 | 31.7
313.15 K, x1 = 0.7004 | 1020.89 | 34.5
313.15 K, x1 = 0.7972 | 1035.03 | 38.5
313.15 K, x1 = 0.9032 | 1048.3 | 44.1
313.15 K, x1 = 1 | 1059.66 | 54.9
318.15 K, x1 = 0.1008 | 834.48 | 20.8
318.15 K, x1 = 0.2007 | 885.06 | 23.4
318.15 K, x1 = 0.3005 | 923.93 | 24.9
318.15 K, x1 = 0.3999 | 954.55 | 26.5
318.15 K, x1 = 0.5005 | 979.93 | 28.6
318.15 K, x1 = 0.5998 | 1000.4 | 31.4
318.15 K, x1 = 0.7004 | 1017.77 | 34.2
318.15 K, x1 = 0.7972 | 1031.94 | 38.2
318.15 K, x1 = 0.9032 | 1045.24 | 43.8
318.15 K, x1 = 1 | 1056.64 | 54.5

CCCC[n+]1ccccc1.N#C[N-]C#N [1-butylpyridinium dicyanamide] + CCCO
Settings | mass density [kg/m3] | surface tension liquid-gas [mN/m]
288.15 K, x1 = 0.1001 | 872.25 | 26.5
288.15 K, x1 = 0.2008 | 919.12 | 27.9
288.15 K, x1 = 0.3008 | 954.79 | 29.5
288.15 K, x1 = 0.4009 | 982.76 | 31.7
288.15 K, x1 = 0.4994 | 1005.24 | 33.1
288.15 K, x1 = 0.5998 | 1023.96 | 35.7
288.15 K, x1 = 0.6976 | 1039.92 | 38.4
288.15 K, x1 = 0.7974 | 1052.61 | 41.2
288.15 K, x1 = 0.903 | 1064.59 | 45.8
288.15 K, x1 = 1 | 1074.97 | 56.3
293.15 K, x1 = 0.1001 | 868.53 | 26.1
293.15 K, x1 = 0.2008 | 915.57 | 27.6
293.15 K, x1 = 0.3008 | 951.37 | 29.1
293.15 K, x1 = 0.4009 | 979.42 | 31.3
293.15 K, x1 = 0.4994 | 1001.98 | 32.8
293.15 K, x1 = 0.5998 | 1020.75 | 35.3
293.15 K, x1 = 0.6976 | 1036.74 | 38
293.15 K, x1 = 0.7974 | 1049.46 | 41
293.15 K, x1 = 0.903 | 1061.47 | 45.6
293.15 K, x1 = 1 | 1071.9 | 56
298.15 K, x1 = 0.1001 | 864.79 | 25.6
298.15 K, x1 = 0.2008 | 912.01 | 27.1
298.15 K, x1 = 0.3008 | 947.94 | 28.8
298.15 K, x1 = 0.4009 | 976.09 | 31.1
298.15 K, x1 = 0.4994 | 998.72 | 32.5
298.15 K, x1 = 0.5998 | 1017.54 | 35
298.15 K, x1 = 0.6976 | 1033.57 | 37.7
298.15 K, x1 = 0.7974 | 1046.31 | 40.7
298.15 K, x1 = 0.903 | 1058.35 | 45.2
298.15 K, x1 = 1 | 1068.83 | 55.7
303.15 K, x1 = 0.1001 | 861.04 | 25.2
303.15 K, x1 = 0.2008 | 908.45 | 26.7
303.15 K, x1 = 0.3008 | 944.53 | 28.4
303.15 K, x1 = 0.4009 | 972.76 | 30.7
303.15 K, x1 = 0.4994 | 995.47 | 32.2
303.15 K, x1 = 0.5998 | 1014.34 | 34.7
303.15 K, x1 = 0.6976 | 1030.42 | 37.4
303.15 K, x1 = 0.7974 | 1043.18 | 40.4
303.15 K, x1 = 0.903 | 1055.25 | 45
303.15 K, x1 = 1 | 1065.76 | 55.5
308.15 K, x1 = 0.1001 | 857.28 | 24.7
308.15 K, x1 = 0.2008 | 904.9 | 26.4
308.15 K, x1 = 0.3008 | 941.11 | 28.1
308.15 K, x1 = 0.4009 | 969.44 | 30.4
308.15 K, x1 = 0.4994 | 992.23 | 31.7
308.15 K, x1 = 0.5998 | 1011.15 | 34.4
308.15 K, x1 = 0.6976 | 1027.27 | 37.1
308.15 K, x1 = 0.7974 | 1040.07 | 40.1
308.15 K, x1 = 0.903 | 1052.16 | 44.7
308.15 K, x1 = 1 | 1062.7 | 55.2
313.15 K, x1 = 0.1001 | 853.51 | 24.4
313.15 K, x1 = 0.2008 | 901.33 | 26
313.15 K, x1 = 0.3008 | 937.71 | 27.7
313.15 K, x1 = 0.4009 | 966.13 | 30
313.15 K, x1 = 0.4994 | 989 | 31.5
313.15 K, x1 = 0.5998 | 1007.98 | 34.1
313.15 K, x1 = 0.6976 | 1024.14 | 36.8
313.15 K, x1 = 0.7974 | 1036.96 | 39.8
313.15 K, x1 = 0.903 | 1049.09 | 44.4
313.15 K, x1 = 1 | 1059.66 | 54.9
318.15 K, x1 = 0.1001 | 849.73 | 24
318.15 K, x1 = 0.2008 | 897.78 | 25.6
318.15 K, x1 = 0.3008 | 934.3 | 27.3
318.15 K, x1 = 0.4009 | 962.85 | 29.6
318.15 K, x1 = 0.4994 | 985.79 | 31.2
318.15 K, x1 = 0.5998 | 1004.82 | 33.8
318.15 K, x1 = 0.6976 | 1021.02 | 36.6
318.15 K, x1 = 0.7974 | 1033.88 | 39.5
318.15 K, x1 = 0.903 | 1046.03 | 44.1
318.15 K, x1 = 1 | 1056.64 | 54.5
